Measurements published in patent US20170044121A1, “TETRA-O-SUBSTITUTED BUTANE-BRIDGE MODIFIED NDGA DERIVATIVES, THEIR SYNTHESIS AND PHARMAECUTICAL USE” (Erimos Pharmaceuticals LLC, priority 2006, published 2017).
Structures can show the parent of a compound that is named as a salt. Where two headings read alike, the source gives them in different places.

How the values were obtained:
A549 (lung carcinoma) = assay: MTS cell viability assay, A549; type: cell-based
[1] = system: HeLa (cervical adenocarcinoma); assay: MTS cell viability assay, HeLa; type: cell-based; settings: read-out: HeLa IC50
[2] = Caco-2 monolayer permeability study; settings: human
Caco-2 cell monolayers [3] = assay: Caco-2 monolayer permeability study
[4] = system: TAT transactivation of the HIV-1 LTR promoter (TAT-TRS); assay: cells; type: cell-based; settings: Human immunodeficiency virus 1, COS-7, 48 h, read-out: SEAP EC50
COS-7 cells = assay: MTT cytotoxicity in COS-7 cells (run with SEAP); type: cell-based, green monkey; settings: Chlorocebus sabaeus
MCP-1 = MCP-1 protein production in TNF-α-treated primary human keratinocytes; type: cell-based; settings: Keratinocyte, read-out: MCP-1 IC50
[5] = cited from earlier work
Caco-2 cell monolayers [6] = settings: for Mass balance mean A to B: 50 μM
in vitro [7] = settings: human; for Papp A→B at 90 min, 50 μM: Caco-2, pH 7.4, Papp mean A to B
Caco-2 cell monolayers [8] = settings: Caco-2 test system, historical values; cited from earlier work
[9] = system: H-69 small cell lung cancer cells; settings: cited from earlier work
[10] = system: apoptosis in cultured cells (DNA fragmentation); assay: TiterTACS DNA fragmentation apoptosis assay; type: cell-based; settings: TiterTACS apoptosis detection
survivin = assay: ELISA survivin assay (cell lysates); type: cell-based; settings: Homo sapiens, survivin protein in cell lysates
VEGF = assay: ELISA VEGF assay (DFO-induced hypoxia); type: cell-based; settings: Homo sapiens, read-out: VEGF IC50
in vitro [11] = assay: in vitro
[12] = system: NSCLC cell line panel (9 cell lines); settings: NSCLC (9 cell lines), 48 hours, SRB
[13] = system: Colon Cancer cell line panel (6 cell lines); settings: Colon Cancer (6 cell lines), 48 hours, SRB
[14] = system: Breast Cancer cell line panel (8 cell lines); settings: Breast Cancer (8 cell lines), 48 hours, SRB
[15] = system: Ovarian Cancer cell line panel (6 cell lines); settings: Ovarian Cancer (6 cell lines), 48 hours, SRB
[16] = system: Leukemia cell line panel (6 cell lines); settings: Leukemia (6 cell lines), 48 hours, SRB
[17] = system: Renal Cancer cell line panel (8 cell lines); settings: Renal Cancer (8 cell lines), 48 hours, SRB
[18] = system: Melanoma cell line panel (8 cell lines); settings: Melanoma (8 cell lines), 48 hours, SRB
[19] = system: Prostate cell line panel (1 cell line); settings: Prostate (1 cell line), 48 hours, SRB
[20] = system: CNS cell line panel (5 cell lines); settings: CNS (5 cell lines), 48 hours, SRB
[21] = system: NSCLC cell line panel (9 cell lines); assay: cells; settings: Homo sapiens, 48 h, read-out: LC50
[22] = system: Colon Cancer cell line panel (6 cell lines); assay: cells; settings: Homo sapiens, 48 h, read-out: LC50
[23] = system: Breast Cancer cell line panel (8 cell lines); assay: cells; settings: Homo sapiens, 48 h, read-out: LC50
[24] = system: Ovarian Cancer cell line panel (6 cell lines); assay: cells; settings: Homo sapiens, 48 h, read-out: LC50
[25] = system: Leukemia cell line panel (6 cell lines); assay: cells; settings: Homo sapiens, 48 h, read-out: LC50
[26] = system: Renal Cancer cell line panel (8 cell lines); assay: cells; settings: Homo sapiens, 48 h, read-out: LC50
[27] = system: Melanoma cell line panel (8 cell lines); assay: cells; settings: Homo sapiens, 48 h, read-out: LC50
[28] = system: Prostate cell line panel (1 cell line); assay: cells; settings: Homo sapiens, 48 h, read-out: LC50
[29] = system: CNS cell line panel (5 cell lines); assay: cells; settings: Homo sapiens, 48 h, read-out: LC50
[30] = Non-specific binding to 24-well assay plate without cells; settings: single well of a 24-well assay plate without cells
[31] = Homo sapiens, A549, read-out: A549 IC50
[32] = Caco-2, nominal conc. 20 μM, 90 minutes, duplicate monolayers
[33] = MTT assay, COS-7 test cells of the SEAP assay, read-out: COS-7 IC50
[34] = TNF-α-treated PHK, MCP-1 protein production, ELISA
[35] = human, Caco-2, 90 min, 1 μM, pH 7.4

Cc1nc(COc2ccc(CCCCc3ccc(OCc4csc(C)n4)c(OCc4csc(C)n4)c3)cc2OCc2csc(C)n2)cs1 [Compound G, 1,4-bis{3,4-bis(2-methyl-thiazol-4-yl-methoxy)phenyl}-butane tetrakis-hydrochloride salt]
IC50 (A549 (lung carcinoma); [31]): > 100 µM
IC50 ([1]; Homo sapiens, HeLa): > 100 µM

C[C@H]1O[C@@H](O[C@H]2[C@@H](O)C[C@H](O[C@H]3[C@@H](O)C[C@H](O[C@H]4CC[C@@]5(C)[C@H](CC[C@@H]6[C@@H]5C[C@@H](O)[C@]5(C)[C@@H](C7=CC(=O)OC7)CC[C@]65O)C4)O[C@@H]3C)O[C@@H]2C)C[C@H](O)[C@@H]1O [digoxin, reference compound]
Papp A→B at 90 min, 5 μM ([2]; Caco-2, pH 7.4, Papp mean A to B, Caco-2, 5 μM, 90 minutes, pH 7.4): 2.28 ×10⁻⁶ cm/s
Mass balance mean A to B (Caco-2 cell monolayers [3]; Caco-2, 5 μM, 90 minutes): 73%
Mass balance mean B to A (Caco-2 cell monolayers [3]; Caco-2, 5 μM, 90 minutes): 79%
Polarization Ratio mean (B-A/A-B) (Caco-2 cell monolayers [3]; Caco-2, 5 μM, 90 minutes): 5.4
Papp mean B to A (Caco-2 cell monolayers [3]; Caco-2, 5 μM, 90 minutes, pH 7.4): 12.4 ×10⁻⁶ cm/s

c1cc(OCCCN2CCCCC2)c(OCCCN2CCCCC2)cc1CCCCc1ccc(OCCCN2CCCCC2)c(OCCCN2CCCCC2)c1 [Compound E, 1,4-bis{3,4-bis[3-(piperidin-1-yl)propoxy]phenyl}-butane tetrakis-hydrochloride salt]
IC50 (A549 (lung carcinoma); MTS assay, read-out: A549 IC50): 9 µM
IC50 ([1]; MTS assay): 5 to 10 µM

Cc1nc(COc2ccc(CCCCc3ccc(OCc4csc(C)n4)c(OCc4csc(C)n4)c3)cc2OCc2csc(C)n2)cs1 (as salt: hydrochloride) [Compound G, 1,4-bis{3,4-bis(2-methyl-thiazol-4-yl-methoxy)phenyl}-butane tetrakis-hydrochloride salt]
melting point: 96 to 98 °C

COc1ccc(CCCCc2ccc(OC)c(OC)c2)cc1OC [Compound A, 1,4-bis-(3,4-methoxyphenyl) butane]
EC50 [4]: > 100 µM
IC50 (COS-7 cells; COS-7, read-out: COS-7 IC50): > 100 µM
IC50 (A549 (lung carcinoma); [31]): > 100 µM
IC50 ([1]; Homo sapiens, HeLa): > 100 µM
IC50 (MCP-1): > 100 µM

COc1ccc(C[C@@H](C)[C@@H](C)Cc2ccc(OC)c(OC)c2)cc1OC [Compound M4N, (tetra-O-methyl)nordihydroguaiaretic acid]
water solubility [5]: poor

CC(C)NCC(O)COc1cccc2ccccc12 (stereo not shown) [propranolol, reference compound]
Mass balance mean A to B (Caco-2 cell monolayers [6]; human, Caco-2, 90 min, pH 7.4): 71%
Papp A→B at 90 min, 50 μM (in vitro [7]): 14.2 ×10⁻⁶ cm/s
Papp historical range at the testing facility (mean ± SD) (Caco-2 cell monolayers [8]): 1.5×10^−5±4.2×10^−5

Oc1ccc(CCCCc2ccc(O)c(O)c2)cc1O [Compound B, 1,4-bis-(3,4-hydroxyphenyl) butane]
melting point: 140 to 142 °C
potency relative to NDGA as proliferative inhibitor [9]: 10 times

OC[C@@H](O)[C@@H](O)[C@H](O)[C@H](O)CO [mannitol, reference compound]
Mass balance mean A to B (Caco-2 cell monolayers [6]; human, Caco-2, 90 min, pH 7.4): 96%
Papp A→B at 90 min, 50 μM (in vitro [7]): 0.514 ×10⁻⁶ cm/s

CN1CCN(CCOc2ccc(CCCCc3ccc(OCCN4CCN(C)CC4)c(OCCN4CCN(C)CC4)c3)cc2OCCN2CCN(C)CC2)CC1 [Compound F, 1,4-bis{3,4-bis[2-(1-methyl-piperazin-4-yl)-ethoxy]phenyl}-butane]
IC50 (A549 (lung carcinoma); [31]): > 100 µM
IC50 ([1]; Homo sapiens, HeLa): > 100 µM

CN(C)CCOc1ccc(CCCCc2ccc(OCCN(C)C)c(OCCN(C)C)c2)cc1OCCN(C)C [Compound H, 1,4-bis{3,4-bis(2-(N,N′-dimethylamino)-ethoxy)phenyl}-butane]
EC50 [4]: 30 to 40 µM
IC50 (COS-7 cells; COS-7, read-out: COS-7 IC50): 20 to 30 µM
IC50 (A549 (lung carcinoma); [31]): 20 to 40 µM
IC50 ([1]; Homo sapiens, HeLa): 20 to 30 µM
DNA fragmentation [10]: Positive
IC50 (survivin): ~25 µM
IC50 (VEGF): > 60 µM
IC50 (MCP-1): 75 µM
melting point: 65 to 67 °C
recovery at 90 min, 20 μM (in vitro [11]): 96%
Papp B→A at 90 min, 20 μM ([2]; Caco-2, pH 7.4): 10.1 ×10⁻⁶ cm/s
Papp A→B at 90 min ([2]; Caco-2, pH 7.4, BCS permeability class, from A-B Papp in Caco-2 versus mannitol and propranolol): > 14.2 ×10⁻⁶ cm/s
Papp A→B at 90 min, 20 μM ([2]; Caco-2, pH 7.4, Papp A to B, Caco-2, nominal conc. 20 μM, 90 minutes, duplicate monolayers): 66.7 ×10⁻⁶ cm/s
efflux ratio at 90 min, 20 μM ([2]; Caco-2, pH 7.4, Polarization Ratio [B-A/A-B], Caco-2, nominal conc. 20 μM): 0.1 to 0.2
Polarization Ratio [B-A/A-B] (Caco-2 cell monolayers [3]; Caco-2, nominal conc. 20 μM): 0.15
Papp A to B (Caco-2 cell monolayers [3]; [32]): 64.4 ×10⁻⁶ cm/s
Papp B to A (Caco-2 cell monolayers [3]; [32]): 10.1 ×10⁻⁶ cm/s
Mass Balance A to B (Caco-2 cell monolayers [3]; Caco-2, nominal conc. 20 μM, recovery from apical and basolateral chambers, duplicates): ≧100%

CCOc1ccc(CCCCc2ccc(OCC)c(OCC)c2)cc1OCC [Compound C, 1,4-bis-(3,4-ethoxyphenyl) butane]
EC50 [4]: > 100 µM
IC50 (COS-7 cells; [33]): > 100 µM
IC50 (A549 (lung carcinoma); Homo sapiens, A549, MTS assay, read-out: A549 IC50): > 100 µM
IC50 ([1]; Homo sapiens, HeLa, MTS assay): > 100 µM
IC50 (MCP-1; [34]): > 100 µM
melting point: 113 to 115 °C

c1cc(OCCCN2CCCCC2)c(OCCCN2CCCCC2)cc1CCCCc1ccc(OCCCN2CCCCC2)c(OCCCN2CCCCC2)c1 [Compound D, 1,4-bis{3,4-bis[3-(piperidin-1-yl)propoxy]phenyl}-butane]
EC50 [4]: 0.7 to 0.8 µM
IC50 (COS-7 cells; [33]): 0.8 to 0.9 µM
IC50 (A549 (lung carcinoma); MTS assay, read-out: A549 IC50): 1 to 2 µM
IC50 ([1]; Homo sapiens, HeLa, MTS assay): 5 to 6 µM
DNA fragmentation [10]: Positive
IC50 (VEGF; VEGF released into media, ELISA): ~4 µM
IC50 (MCP-1; [34]): 3 µM
Mean Growth Percent at 10 μM ([12]; 10 μM): 62.77%
TGI [12]: 7.31E−6
Mean Growth Percent at 10 μM ([13]; 10 μM): 40.49%
TGI [13]: 6.45E−6
Mean Growth Percent at 10 μM ([14]; 10 μM): 59.72%
TGI [14]: 2.11E−5
Mean Growth Percent at 10 μM ([15]; 10 μM): 66.18%
TGI [15]: 1.46E−5
Mean Growth Percent at 10 μM ([16]; 10 μM): 12.31%
TGI [16]: 4.28E−6
Mean Growth Percent at 10 μM ([17]; 10 μM): 82.54%
TGI [17]: 1.70E−5
Mean Growth Percent at 10 μM ([18]; 10 μM): 16.46%
TGI [18]: 7.74E−6
Mean Growth Percent at 10 μM ([19]; 10 μM): 2.84%
TGI [19]: 2.76E−5
Mean Growth Percent at 10 μM ([20]; 10 μM): 78.88%
TGI [20]: 4.13E−6
BCS permeability class (Caco-2 cell monolayers [6]; Caco-2): moderate-to-high
Papp A to B (Caco-2 cell monolayers [6]; [35]): 14 ×10⁻⁶ cm/s
Papp B to A (Caco-2 cell monolayers [6]; [35]): 2.51 ×10⁻⁶ cm/s
Polarization Ratio [B-A/A-B] (Caco-2 cell monolayers [6]; [35]): 0.18
CC50 [21]: 28.4 µM
CC50 [22]: 22.8 µM
CC50 [23]: 30.8 µM
CC50 [24]: 35.3 µM
CC50 [25]: 13.4 µM
CC50 [26]: 37 µM
CC50 [27]: 15.9 µM
CC50 [28]: 53.9 µM
CC50 [29]: 11 µM
Papp A→B at 90 min, 1 μM (in vitro [7]; Caco-2, pH 7.4, Papp A to B): 13.8 ×10⁻⁶ cm/s
Papp B→A at 90 min, 1 μM (in vitro [7]; Caco-2, pH 7.4, Papp B to A): 2.35 ×10⁻⁶ cm/s
efflux ratio at 90 min, 1 μM (in vitro [7]; Caco-2, pH 7.4, Polarization Ratio [B-A/A-B]): 0.1 to 0.2
recovery at 90 min, 1 μM [30]: 35%
